Measured values as given in the kinase profiling compilation of Christmann-Franck et al. (2016).
One block for each compound: values may come before it.

Columns and labels:
Assay in all cases: radiometric filter-binding kinase assay, Kinase HotSpot
Settings in all cases: compound 0.5 µM; ATP 10 µM
[1] = molecular target: BRSK2 (human) (UniProt Q8IWQ3)
[2] = molecular target: CAMK1G (human) (UniProt Q96NX5)
[3] = molecular target: CDK6 CCND1 (human) (UniProt Q00534+P24385)
[4] = molecular target: CLK3 (human) (UniProt P49761)
[5] = molecular target: CSNK1D (human) (UniProt P48730)
[6] = molecular target: CSNK1E (human) (UniProt P49674)
[7] = molecular target: CSNK1G1 (human) (UniProt Q9HCP0)
[8] = molecular target: CSNK2A1 (human) (UniProt P68400)
[9] = molecular target: DDR2 (human) (UniProt Q16832)
[10] = molecular target: DSTYK (human) (UniProt Q6XUX3)
[11] = molecular target: DYRK2 (human) (UniProt Q92630)
[12] = molecular target: EPHA1 (human) (UniProt P21709)
[13] = molecular target: EPHB4 (human) (UniProt P54760)
[14] = molecular target: ERBB4 (human) (UniProt Q15303)
[15] = molecular target: FGFR3 (human) (UniProt P22607)
[16] = molecular target: FGFR4 (human) (UniProt P22455)
[17] = molecular target: HIPK1 (human) (UniProt Q86Z02)
[18] = molecular target: HIPK3 (human) (UniProt Q9H422)
[19] = molecular target: JAK2 JH1 JH2 (human) (UniProt O60674)
[20] = molecular target: KIT (human) (UniProt P10721)
[21] = molecular target: MAP3K8 (human) (UniProt P41279)
[22] = molecular target: MAPK1 (human) (UniProt P28482)
[23] = molecular target: MAPKAPK2 (human) (UniProt P49137)
[24] = molecular target: MERTK (human) (UniProt Q12866)
[25] = molecular target: MLTK (human) (UniProt Q9NYL2)
[26] = molecular target: MST4 (human) (UniProt Q9P289)
[27] = molecular target: NEK11 (human) (UniProt Q8NG66)
[28] = molecular target: NEK3 (human) (UniProt P51956)
[29] = molecular target: NLK (human) (UniProt Q9UBE8)
[30] = molecular target: NTRK3 (human) (UniProt Q16288)
[31] = molecular target: PAK3 (human) (UniProt O75914)
[32] = molecular target: PAK6 (human) (UniProt Q9NQU5)
[33] = molecular target: PHKG2 (human) (UniProt P15735)
[34] = molecular target: PLK1 (human) (UniProt P53350)
[35] = molecular target: PNCK (human) (UniProt Q6P2M8)
[36] = molecular target: PRKCD (human) (UniProt Q05655)
[37] = molecular target: PRKCE (human) (UniProt Q02156)
[38] = molecular target: ROS1 (human) (UniProt P08922)
[39] = molecular target: STK11 (human) (UniProt Q15831)
[40] = molecular target: SYK (human) (UniProt P43405)
[41] = molecular target: TAOK2 (human) (UniProt Q9UL54)
[42] = molecular target: YES1 (human) (UniProt P07947)

Sequence of PAK3 (human) (O75914 whole entry, looked up): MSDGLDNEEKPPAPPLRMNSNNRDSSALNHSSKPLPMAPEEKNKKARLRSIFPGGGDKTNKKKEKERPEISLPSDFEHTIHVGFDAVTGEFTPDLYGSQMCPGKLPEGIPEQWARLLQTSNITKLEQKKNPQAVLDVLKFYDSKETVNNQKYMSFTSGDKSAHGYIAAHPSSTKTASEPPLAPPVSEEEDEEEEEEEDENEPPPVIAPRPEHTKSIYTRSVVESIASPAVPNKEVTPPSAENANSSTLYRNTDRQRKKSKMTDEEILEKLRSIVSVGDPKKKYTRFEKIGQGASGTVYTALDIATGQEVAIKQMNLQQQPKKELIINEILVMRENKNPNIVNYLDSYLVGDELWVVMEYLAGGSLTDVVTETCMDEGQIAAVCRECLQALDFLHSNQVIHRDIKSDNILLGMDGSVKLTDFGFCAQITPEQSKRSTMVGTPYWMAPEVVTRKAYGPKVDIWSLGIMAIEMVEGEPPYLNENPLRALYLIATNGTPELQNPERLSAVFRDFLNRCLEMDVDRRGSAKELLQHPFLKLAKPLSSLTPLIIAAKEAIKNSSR
Sequence of BRSK2 (human) (Q8IWQ3 whole entry, looked up): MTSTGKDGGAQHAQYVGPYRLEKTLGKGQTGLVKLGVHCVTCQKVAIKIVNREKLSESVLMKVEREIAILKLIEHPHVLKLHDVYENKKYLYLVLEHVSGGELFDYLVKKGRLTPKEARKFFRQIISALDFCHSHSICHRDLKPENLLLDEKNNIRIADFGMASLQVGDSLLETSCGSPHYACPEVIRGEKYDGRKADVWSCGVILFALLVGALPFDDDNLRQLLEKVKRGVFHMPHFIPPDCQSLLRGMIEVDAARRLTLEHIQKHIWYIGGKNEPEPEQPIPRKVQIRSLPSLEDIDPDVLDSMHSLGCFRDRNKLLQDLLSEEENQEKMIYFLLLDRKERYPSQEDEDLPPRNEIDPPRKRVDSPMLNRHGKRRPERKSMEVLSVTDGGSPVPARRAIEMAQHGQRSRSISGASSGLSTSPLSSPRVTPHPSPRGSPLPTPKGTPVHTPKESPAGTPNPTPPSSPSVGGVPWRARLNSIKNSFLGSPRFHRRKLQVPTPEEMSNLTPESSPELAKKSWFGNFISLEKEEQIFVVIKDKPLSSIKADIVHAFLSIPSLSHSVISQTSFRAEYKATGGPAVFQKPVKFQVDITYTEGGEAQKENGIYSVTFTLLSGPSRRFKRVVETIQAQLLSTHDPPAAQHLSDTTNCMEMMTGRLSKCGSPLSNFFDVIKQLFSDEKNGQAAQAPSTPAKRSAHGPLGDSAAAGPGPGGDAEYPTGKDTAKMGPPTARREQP
Sequence of MST4 (human) (Q9P289 whole entry, looked up): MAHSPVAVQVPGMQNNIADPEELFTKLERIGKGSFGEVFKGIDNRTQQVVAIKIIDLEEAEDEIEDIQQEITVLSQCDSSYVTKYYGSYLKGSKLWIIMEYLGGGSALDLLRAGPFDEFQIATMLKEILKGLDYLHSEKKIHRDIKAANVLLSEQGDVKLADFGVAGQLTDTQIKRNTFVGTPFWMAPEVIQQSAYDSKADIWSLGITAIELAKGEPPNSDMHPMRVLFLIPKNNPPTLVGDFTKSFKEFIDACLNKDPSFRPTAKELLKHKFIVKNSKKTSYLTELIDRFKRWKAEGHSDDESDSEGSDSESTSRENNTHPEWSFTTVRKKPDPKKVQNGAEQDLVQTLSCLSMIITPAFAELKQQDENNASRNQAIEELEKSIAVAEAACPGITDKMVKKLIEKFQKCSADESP
Sequence of FGFR3 (human) (P22607 whole entry, looked up): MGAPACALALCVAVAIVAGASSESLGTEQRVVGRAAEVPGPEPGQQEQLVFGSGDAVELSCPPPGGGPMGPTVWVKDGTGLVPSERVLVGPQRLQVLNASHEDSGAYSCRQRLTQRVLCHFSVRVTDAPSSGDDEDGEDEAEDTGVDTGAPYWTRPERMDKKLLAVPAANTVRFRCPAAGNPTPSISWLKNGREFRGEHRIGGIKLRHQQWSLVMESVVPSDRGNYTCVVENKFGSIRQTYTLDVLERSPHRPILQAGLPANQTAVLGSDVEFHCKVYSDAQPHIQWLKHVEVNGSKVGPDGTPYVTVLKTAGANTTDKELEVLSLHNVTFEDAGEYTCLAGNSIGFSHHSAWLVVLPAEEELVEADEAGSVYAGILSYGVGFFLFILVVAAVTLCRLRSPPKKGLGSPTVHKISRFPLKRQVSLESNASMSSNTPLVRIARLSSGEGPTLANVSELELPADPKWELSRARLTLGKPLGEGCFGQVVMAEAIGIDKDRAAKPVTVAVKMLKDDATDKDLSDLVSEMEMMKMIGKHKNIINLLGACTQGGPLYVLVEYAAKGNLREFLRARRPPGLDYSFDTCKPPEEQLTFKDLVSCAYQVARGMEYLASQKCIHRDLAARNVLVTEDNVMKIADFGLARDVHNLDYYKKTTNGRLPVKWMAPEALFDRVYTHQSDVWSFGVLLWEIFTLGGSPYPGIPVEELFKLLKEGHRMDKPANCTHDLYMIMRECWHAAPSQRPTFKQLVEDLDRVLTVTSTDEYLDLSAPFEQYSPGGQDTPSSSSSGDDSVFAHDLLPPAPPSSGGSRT
Sequence of CSNK1G1 (human) (Q9HCP0 whole entry, looked up): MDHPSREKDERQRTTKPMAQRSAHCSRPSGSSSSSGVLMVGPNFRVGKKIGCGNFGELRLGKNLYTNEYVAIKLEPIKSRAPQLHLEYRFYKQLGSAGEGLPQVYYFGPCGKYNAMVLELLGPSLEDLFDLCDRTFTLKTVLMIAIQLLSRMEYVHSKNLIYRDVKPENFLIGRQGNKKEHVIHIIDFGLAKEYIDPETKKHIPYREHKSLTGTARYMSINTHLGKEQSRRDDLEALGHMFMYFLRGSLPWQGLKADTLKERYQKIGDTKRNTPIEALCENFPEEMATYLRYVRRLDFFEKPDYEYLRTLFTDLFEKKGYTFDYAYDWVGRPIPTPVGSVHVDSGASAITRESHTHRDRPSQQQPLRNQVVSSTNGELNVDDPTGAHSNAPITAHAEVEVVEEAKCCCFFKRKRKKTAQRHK
Sequence of MAP3K8 (human) (P41279 whole entry, looked up): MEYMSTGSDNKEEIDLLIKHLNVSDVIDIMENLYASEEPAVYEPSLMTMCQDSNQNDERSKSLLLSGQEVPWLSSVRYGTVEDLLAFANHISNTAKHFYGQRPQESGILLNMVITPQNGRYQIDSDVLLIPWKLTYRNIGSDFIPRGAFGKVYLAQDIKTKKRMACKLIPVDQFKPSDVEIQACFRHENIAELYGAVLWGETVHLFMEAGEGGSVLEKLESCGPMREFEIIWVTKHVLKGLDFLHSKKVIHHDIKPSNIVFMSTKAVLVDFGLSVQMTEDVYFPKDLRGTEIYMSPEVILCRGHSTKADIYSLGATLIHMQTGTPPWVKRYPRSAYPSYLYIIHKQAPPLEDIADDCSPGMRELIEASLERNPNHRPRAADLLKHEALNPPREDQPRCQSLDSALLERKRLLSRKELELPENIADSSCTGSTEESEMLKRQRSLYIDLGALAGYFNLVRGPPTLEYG
Sequence of MERTK (human) (Q12866 whole entry, looked up): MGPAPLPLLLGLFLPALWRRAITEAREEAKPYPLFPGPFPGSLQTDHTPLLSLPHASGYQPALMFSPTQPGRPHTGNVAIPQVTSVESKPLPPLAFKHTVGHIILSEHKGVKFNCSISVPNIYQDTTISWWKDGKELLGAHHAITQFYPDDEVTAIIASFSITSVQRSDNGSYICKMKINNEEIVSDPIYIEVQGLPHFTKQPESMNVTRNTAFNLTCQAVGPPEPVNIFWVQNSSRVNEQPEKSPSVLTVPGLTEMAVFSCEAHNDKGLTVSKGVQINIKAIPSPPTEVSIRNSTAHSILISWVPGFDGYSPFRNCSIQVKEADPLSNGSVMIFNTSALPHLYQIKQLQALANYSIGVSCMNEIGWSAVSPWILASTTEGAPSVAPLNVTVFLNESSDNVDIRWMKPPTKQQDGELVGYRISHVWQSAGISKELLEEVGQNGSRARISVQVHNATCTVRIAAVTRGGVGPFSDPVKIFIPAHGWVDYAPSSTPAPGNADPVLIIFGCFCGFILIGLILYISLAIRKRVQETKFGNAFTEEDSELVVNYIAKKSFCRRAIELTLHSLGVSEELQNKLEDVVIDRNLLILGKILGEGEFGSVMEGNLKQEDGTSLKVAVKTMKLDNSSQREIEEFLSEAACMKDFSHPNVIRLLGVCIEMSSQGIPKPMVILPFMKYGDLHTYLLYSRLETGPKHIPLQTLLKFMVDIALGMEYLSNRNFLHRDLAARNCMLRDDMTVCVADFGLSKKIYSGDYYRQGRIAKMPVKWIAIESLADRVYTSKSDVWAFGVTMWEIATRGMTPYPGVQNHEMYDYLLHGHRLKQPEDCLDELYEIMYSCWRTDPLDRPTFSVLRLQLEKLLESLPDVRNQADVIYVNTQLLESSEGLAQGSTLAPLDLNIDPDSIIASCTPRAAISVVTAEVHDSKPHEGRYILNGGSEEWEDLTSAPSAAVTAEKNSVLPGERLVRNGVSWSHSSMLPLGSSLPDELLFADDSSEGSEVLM
Sequence of NEK3 (human) (P51956 whole entry, looked up): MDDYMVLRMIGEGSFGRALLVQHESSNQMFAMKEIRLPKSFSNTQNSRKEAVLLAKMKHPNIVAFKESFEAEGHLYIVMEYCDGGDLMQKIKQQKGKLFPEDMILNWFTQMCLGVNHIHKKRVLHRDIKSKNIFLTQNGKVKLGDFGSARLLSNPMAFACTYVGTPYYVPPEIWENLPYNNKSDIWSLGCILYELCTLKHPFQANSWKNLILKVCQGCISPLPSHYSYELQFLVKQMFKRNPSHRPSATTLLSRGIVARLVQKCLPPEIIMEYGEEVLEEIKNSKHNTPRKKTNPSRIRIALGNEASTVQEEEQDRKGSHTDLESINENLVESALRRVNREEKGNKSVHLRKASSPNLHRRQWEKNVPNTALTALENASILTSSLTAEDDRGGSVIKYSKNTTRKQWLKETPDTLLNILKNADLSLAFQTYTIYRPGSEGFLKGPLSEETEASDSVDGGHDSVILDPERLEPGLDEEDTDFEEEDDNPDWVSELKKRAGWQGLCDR

Structure (SMILES): O=c1c2ccccc2[nH]c(=S)n1CCN1CCC(=C(c2ccc(F)cc2)c2ccc(F)cc2)CC1
residual activity [1]: 99.8% | residual activity [2]: 104% | residual activity [3]: 98.7% | residual activity [4]: 101% | residual activity [5]: 100% | residual activity [6]: 100% | residual activity [7]: 92.5% | residual activity [8]: 97.9% | residual activity [9]: 97.6% | residual activity [10]: 86.5% | residual activity [11]: 95.4% | residual activity [12]: 107% | residual activity [13]: 97.1% | residual activity [14]: 87.4% | residual activity [15]: 99.3% | residual activity [16]: 105% | residual activity [17]: 107% | residual activity [18]: 97.7% | residual activity [19]: 92% | residual activity [20]: 103% | residual activity [21]: 100% | residual activity [22]: 102% | residual activity [23]: 106% | residual activity [24]: 97% | residual activity [25]: 98.6% | residual activity [26]: 91.6% | residual activity [27]: 94% | residual activity [28]: 94% | residual activity [29]: 99.5% | residual activity [30]: 98.9% | residual activity [31]: 94.6% | residual activity [32]: 98.4% | residual activity [33]: 100% | residual activity [34]: 100% | residual activity [35]: 109% | residual activity [36]: 95.7% | residual activity [37]: 100% | residual activity [38]: 98.8% | residual activity [39]: 107% | residual activity [40]: 93.2% | residual activity [41]: 109% | residual activity [42]: 99.2%

Structure (SMILES): Cc1cc(Nc2nc(-c3ccccc3)nc3ccccc23)n[nH]1
residual activity [1]: 61.4% | residual activity [2]: 101% | residual activity [3]: 85.5% | residual activity [4]: 33.8% | residual activity [5]: 96.7% | residual activity [6]: 97.4% | residual activity [7]: 75.7% | residual activity [8]: 27% | residual activity [9]: 93.2% | residual activity [10]: 86% | residual activity [11]: 84% | residual activity [12]: 69.9% | residual activity [13]: 91.1% | residual activity [14]: 92% | residual activity [15]: 71.7% | residual activity [16]: 81.9% | residual activity [17]: 96.3% | residual activity [18]: 88.5% | residual activity [19]: 52.6% | residual activity [20]: 40.8% | residual activity [21]: 105% | residual activity [22]: 89.3% | residual activity [23]: 100% | residual activity [24]: 72.2% | residual activity [25]: 87.1% | residual activity [26]: 91.2% | residual activity [27]: 105% | residual activity [28]: 101% | residual activity [29]: 94.7% | residual activity [30]: 2.01% | residual activity [31]: 90.2% | residual activity [32]: 78.9% | residual activity [33]: 86.3% | residual activity [34]: 97.1% | residual activity [35]: 102% | residual activity [36]: 91.3% | residual activity [37]: 87.1% | residual activity [38]: 16.7% | residual activity [39]: 69% | residual activity [40]: 61.9% | residual activity [41]: 90.3% | residual activity [42]: 20.4%

residual activity [1]: 88.1% | residual activity [2]: 92.3% | residual activity [3]: 89.7% | residual activity [4]: 88.5% | residual activity [5]: 65% | residual activity [6]: 74.9% | residual activity [7]: 88.8% | residual activity [8]: 22.1% | residual activity [9]: 94.5% | residual activity [10]: 93.4% | residual activity [11]: 22.2% | residual activity [12]: 95.5% | residual activity [13]: 99.7% | residual activity [14]: 83.1% | residual activity [15]: 98.2% | residual activity [16]: 101% | residual activity [17]: 109% | residual activity [18]: 106% | residual activity [19]: 106% | residual activity [20]: 93.6% | residual activity [21]: 96% | residual activity [22]: 93.5% | residual activity [23]: 97.8% | residual activity [24]: 88.9% | residual activity [25]: 90.4% | residual activity [26]: 104% | residual activity [27]: 118% | residual activity [28]: 87.9% | residual activity [29]: 94.9% | residual activity [30]: 80.2% | residual activity [31]: 102% | residual activity [32]: 97.6% | residual activity [33]: 99.5% | residual activity [34]: 91.4% | residual activity [35]: 100% | residual activity [36]: 92.2% | residual activity [37]: 92.1% | residual activity [38]: 92.7% | residual activity [39]: 79.4% | residual activity [40]: 92.4% | residual activity [41]: 86.4% | residual activity [42]: 89.1%
Structure (SMILES): N#C/C(=C1/Nc2ccccc2S1)c1ccnc(NCCc2cccnc2)n1

Structure (SMILES): CCCCc1c(-c2ccc(O)cc2)[nH]c2nccnc12
residual activity [1]: 87.2% | residual activity [2]: 104% | residual activity [3]: 61.6% | residual activity [4]: 121% | residual activity [5]: 93.7% | residual activity [6]: 102% | residual activity [7]: 93.1% | residual activity [8]: 95.9% | residual activity [9]: 96% | residual activity [10]: 88.9% | residual activity [11]: 93.1% | residual activity [12]: 68.8% | residual activity [13]: 86% | residual activity [14]: 102% | residual activity [15]: 80% | residual activity [16]: 91.8% | residual activity [17]: 97.6% | residual activity [18]: 100% | residual activity [19]: 77.8% | residual activity [20]: 80.8% | residual activity [21]: 111% | residual activity [22]: 106% | residual activity [23]: 92.6% | residual activity [24]: 94.1% | residual activity [25]: 71% | residual activity [26]: 79.1% | residual activity [27]: 92.5% | residual activity [28]: 103% | residual activity [29]: 90.3% | residual activity [30]: 76.1% | residual activity [31]: 97.7% | residual activity [32]: 94.3% | residual activity [33]: 100% | residual activity [34]: 96.6% | residual activity [35]: 109% | residual activity [36]: 102% | residual activity [37]: 107% | residual activity [38]: 26.3% | residual activity [39]: 33.5% | residual activity [40]: 53.5% | residual activity [41]: 62.7% | residual activity [42]: 46.5%
